Laboratory results published in patent US20160319324A1, “MODULATORS OF GLYCEROPHOSPHODIESTER PHOSPHODIESTERASE PROTEINS” (THE JOHNS HOPKINS UNIVERSITY, priority 2013, published 2016).

How the values were obtained:
GDE3 = molecular target: T1, GDE3 (Homo sapiens, UniProt Q9HCC8); assay: validation and site of action of candidate drugs from fresh powder by western blot analysis and surface biotinylation assay; type: cell-based; conditions: for expression and localization of CNTFR and GDE3 / release of CNTFR into the medium: 10 μM in 0.1% DMSO, 24 hours treatment; for expression and localization of CNTFR and GDE3: western blot banding pattern and surface biotinylation; for release of CNTFR into the medium: HEK293T cells transfected with Luc-CNTFR and GDE3
T1 construct: expressed in transfected cells; host or cells: HEK293T
T1 sequence (Q9HCC8 1-539): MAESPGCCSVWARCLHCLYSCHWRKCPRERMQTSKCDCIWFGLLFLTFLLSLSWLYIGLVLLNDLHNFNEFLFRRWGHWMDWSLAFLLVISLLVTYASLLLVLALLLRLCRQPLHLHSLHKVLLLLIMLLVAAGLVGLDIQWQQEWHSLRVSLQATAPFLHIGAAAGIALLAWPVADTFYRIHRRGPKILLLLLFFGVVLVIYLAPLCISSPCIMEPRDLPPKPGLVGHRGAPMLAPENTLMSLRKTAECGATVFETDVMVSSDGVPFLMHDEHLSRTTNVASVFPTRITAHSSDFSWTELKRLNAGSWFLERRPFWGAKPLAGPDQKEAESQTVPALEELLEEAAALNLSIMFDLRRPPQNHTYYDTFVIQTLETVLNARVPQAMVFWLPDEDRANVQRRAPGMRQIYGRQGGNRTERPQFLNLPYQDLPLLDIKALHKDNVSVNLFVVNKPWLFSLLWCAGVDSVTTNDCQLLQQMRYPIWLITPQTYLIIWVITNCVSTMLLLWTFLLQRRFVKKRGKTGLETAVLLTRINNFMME
Experimental: FIG. 10. Validation and identification of the site of action of candidate drugs. Drugs hit by a high-throughput screening were prepared from the fresh powders and their activity was tested by established western blot analysis. […] Concentration of drugs=10 μM.
HEK293T cells were cultured in DMEM with 10% FBS on polyethyleneimine (PEI)-coated 12 well plates and transfected using Fugene6 agent (Roche). 24 hours after transfection, medium was changed to serum free DMEM and cells were incubated for an additional 24 hours. Medium and cell lysates were collected separately, and secretion and expression of proteins were analyzed by western blot and quantified using ImageJ (NIH). Antibodies used in Western analyses were rabbit-anti Jag1 (1:1000, Santa Cruz); rabbit anti-CRD (1:250, gift from Paul Englund) and mouse anti-myc (1.5 μg/ml for IP, DSHB) and as described.
Surface biotinylation assay was performed as previously described (29). Briefly, thirty hours after transfection of HEK293T cells with RECK/GDE and CreER constructs, cells were cooled on ice, washed twice with ice cold PBS++(1×PBS, 1 mM CaCl2, 0.5 mM MgCl2) and then incubated with PBS++ containing 1 mg/ml Sulfo-NHS-SSBiotin (Pierce) for 30 min at 4° C. Unreacted biotin was quenched by PBS++ containing 100 mM Glycine. Cultures were harvested in RIPA buffer, sonicated, and centrifuged at […] for 20 min at 4° C. The supernatant was rotated with Streptavidin beads (Pierce) for 2 hr at 4° C. Precipitates were washed with RIPA buffer three times and eluted with SDS gel loading buffer.
Currently, specific pharmacological modulators for GPI-AP cleavage have not been identified due to poor characterization of GPI-AP cleaving enzymes and the absence of an in vitro assay system. The robust GPI-AP cleaving activity of 6-TM GDEs has allowed the establishment of a luciferase-based, high throughput drug screening assay (signal to noise ratio=44.6; signal to background ratio=7.0; Z′ score=0.6: an excellent assay category). Measuring the GDE3-dependent release of GPI-anchored luciferase into the medium, the present inventors screened 3,360 compounds of the Johns Hopkins Drug library (JHDL), which contains FDA approved and phase II clinical trial drugs. The present inventors have selected common hits, which reduce or increase the release of luciferase activity into the medium more than 3 standard deviations of DMSO controls from duplicated experiments and identified 163 inhibitors (4.9%) and 138 activators (4.1%). Since the assay targets the whole GPI synthesis pathway as well as GPI cleaving activity, it is crucial to identify the site of action. Candidate drugs could modulate different steps of synthesis and cleavage of GPI-APs and will be categorized as follow: drugs activate or inhibit (i) the GPI biosynthesis machinery, (ii) glycosylation, (iii) surface expression of GPI-AP or GDE3, (iv) GPI cleaving activity of GDE, or (v) GPI cleaving-independent secretion of GPI-AP. Among 163 inhibitors, 23 drugs have been prepared from fresh powder stocks and their sites of action were tested by established western blot analyses and results are as follows: 10 drugs (no effect), 9 drugs (reducing surface expression and/or glycosylation of GPI-APs), and 4 drugs (inhibiting GPI-cleaving activity).
JHDL was used to screen drugs that affect the release of Luc-CNTFR into the medium. Drugs that increase or decrease the release index more than 3 SD of 16 DMSO controls of each plate were selected. Common hits of duplicated independent experiments were further analyzed. Among 3,360 drugs screened, we have identified 163 inhibitors and 138 activators. Among 163 inhibitors, 23 compounds were prepared from a fresh powder and their site of action was analyzed (10 μM in 0.1% DMSO, 24 hours treatment). To test whether drugs affect glycosylation and/or surface expression of CNTFR or GDE3, banding pattern of Western blot analysis and surface biotinylation assay were performed (FIG. 10). […]

[1] = molecular target: Luc-CNTFR (firefly) [luciferase: P08659]; assay: cell-based or functional assay
[2] = Concentration of drugs=10 μM, western blot

Chain of Luc-CNTFR (firefly) [luciferase: P08659] (P08659 whole entry): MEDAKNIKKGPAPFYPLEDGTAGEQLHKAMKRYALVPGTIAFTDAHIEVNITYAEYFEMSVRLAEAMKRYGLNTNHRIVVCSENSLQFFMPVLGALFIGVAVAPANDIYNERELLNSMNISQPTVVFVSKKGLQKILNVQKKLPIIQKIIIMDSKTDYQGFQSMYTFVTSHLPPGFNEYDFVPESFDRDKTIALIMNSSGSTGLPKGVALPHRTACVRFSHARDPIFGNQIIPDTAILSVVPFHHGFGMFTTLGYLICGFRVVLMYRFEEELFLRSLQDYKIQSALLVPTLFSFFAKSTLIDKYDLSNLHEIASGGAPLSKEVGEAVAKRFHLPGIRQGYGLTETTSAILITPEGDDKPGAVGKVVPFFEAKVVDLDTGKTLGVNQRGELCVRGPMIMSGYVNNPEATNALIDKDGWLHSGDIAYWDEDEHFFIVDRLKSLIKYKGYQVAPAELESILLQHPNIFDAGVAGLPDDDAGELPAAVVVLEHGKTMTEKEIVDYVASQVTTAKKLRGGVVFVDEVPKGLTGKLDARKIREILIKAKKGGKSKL

Molecule | expression and localization of CNTFR and GDE3 (GDE3) | release of CNTFR into the medium (GDE3; western blot) | further results
CN1[C@@H]2CC[C@H]1C[C@@H](OC(c1ccccc1)c1ccccc1)C2 [benzotropine] |  |  | glycosylation pattern of CNTFR (GDE3; [2]): affect glycosylation pattern of CNTFR
CC[C@H]1OC(=O)[C@H](C)[C@@H](O[C@H]2C[C@@](C)(OC)[C@@H](O)[C@H](C)O2)[C@H](C)[C@@H](O[C@@H]2O[C@H](C)C[C@H](N(C)C)[C@H]2O)[C@](C)(O)C[C@@H](C)C(=O)[C@H](C)[C@@H](O)[C@]1(C)O [erythromycin] | without affecting expression and localization of CNTFR and GDE3 | inhibitor of the release of CNTFR | lysate level of CNTFR (GDE3; [2]): without affecting the lysate level; release of CNTFR into the medium (GDE3; western blot, listed as Erythromycin): inhibits the release of CNTFR
O=C(O)CCC(=O)c1ccc(-c2ccccc2)cc1 [fenbufen] |  | increase the release of CNTFR into the medium | 
COc1c(C)c2c(c(O)c1C/C=C(\C)CCC(=O)O)C(=O)OC2 [mycophenolic acid] |  |  | glycosylation pattern of CNTFR (GDE3; [2]): affect glycosylation pattern of CNTFR
CCCCCCCCC(=O)NCc1ccc(O)c(OC)c1 [nonivamide] | without affecting expression and localization of CNTFR and GDE3 | inhibitor of the release of CNTFR | 
COc1ccc(CN(CCN(C)C)c2ccccn2)cc1 [pyrilamine] |  | increase the release of CNTFR into the medium | 
N[C@@H](Cc1cc(I)c(Oc2cc(I)c(O)c(I)c2)c(I)c1)C(=O)O [thyroxine] | without affecting expression and localization of CNTFR and GDE3 | inhibitor of the release of CNTFR | 
GDE3 (enzyme) |  |  | release index (luciferase activity in the medium/cell lysate) [1]: 7 fold
vitamin B12 | without affecting expression and localization of CNTFR and GDE3 | inhibitor of the release of CNTFR | 
